# Test results: US11236055B2 (Venenum Biodesign, LLC, priority 2016, dated 2022)
# Experiments:
# mouse TGR5 receptor = target: T1, mouse TGR5 receptor (Mus musculus, UniProt Q80SS6); assay: Mouse TGR5 cAMP production assay (HTRF, Cisbio cAMP HiRange); assay type: cell-based; conditions: HEK293-EBNA cells overexpressing mouse TGR5, HTRF cAMP HiRange; coded A-D
# T1 construct: expressed in transfected cells; host or cells: HEK293-EBNA (293 c18, ATCC CRL10852), Hygromycin B selection
# T1 sequence (Q80SS6 1-329): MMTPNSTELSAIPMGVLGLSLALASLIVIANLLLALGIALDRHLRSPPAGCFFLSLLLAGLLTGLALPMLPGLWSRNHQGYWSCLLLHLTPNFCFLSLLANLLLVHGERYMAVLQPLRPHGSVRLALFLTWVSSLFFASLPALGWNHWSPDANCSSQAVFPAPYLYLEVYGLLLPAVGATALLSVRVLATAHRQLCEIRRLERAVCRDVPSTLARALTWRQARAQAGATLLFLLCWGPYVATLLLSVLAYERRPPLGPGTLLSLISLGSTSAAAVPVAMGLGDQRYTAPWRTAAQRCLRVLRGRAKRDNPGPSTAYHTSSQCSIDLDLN
# How it was run: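 cAMP read by HTRF competition after 1 h room-temperature compound exposure of mouse TGR5-overexpressing HEK293-EBNA cells. Cells were suspended in serum-free DMEM containing 500 μM IBMX; compounds ran as 12-point half-log dilutions in duplicate; EC50 derived.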
# human TGR5 receptor = target: T2, human TGR5 receptor (Homo sapiens, UniProt Q8TDU6); assay: Human TGR5 cAMP production assay; assay type: cell-based; conditions: human TGR5, luminescent cAMP assay; coded A-D; read-out: Human TGR5 Lum. cAMP Activity (EC50)
# T2 construct: host or cells: CHO-K1 (hTGR5-CHO cells)
# T2 sequence (Q8TDU6 1-330): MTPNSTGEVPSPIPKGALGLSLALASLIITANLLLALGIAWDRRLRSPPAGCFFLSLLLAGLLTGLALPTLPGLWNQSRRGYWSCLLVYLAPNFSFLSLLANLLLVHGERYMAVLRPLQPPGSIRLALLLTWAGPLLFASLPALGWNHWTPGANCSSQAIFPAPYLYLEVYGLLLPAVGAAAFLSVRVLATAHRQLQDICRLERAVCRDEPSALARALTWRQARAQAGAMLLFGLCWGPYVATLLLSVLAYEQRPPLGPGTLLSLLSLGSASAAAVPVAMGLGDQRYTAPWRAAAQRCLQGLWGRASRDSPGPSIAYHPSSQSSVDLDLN
# How it was run: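 CHO-K1 cells stably expressing human TGR5, with IBMX and cAMP antibody, were exposed to half-log serially diluted compound for 1 h at room temperature. cAMP measured by enzyme-fragment complementation luminescence (XS+ kit) after overnight incubation; EC50 values reported.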
Compound,EC50 (mouse TGR5 receptor),EC50 (human TGR5 receptor)
"Cc1cnccc1-c1cccc(C2(NS(=O)(=O)c3cccc(Cl)c3C)COC2)c1 [Compound 7AC, 3-chloro-2-methyl-N-(3-(3-(3-methylpyridin-4-yl)phenyl)oxetan-3-yl)benzenesulfonamide]",< 100 nM,< 100 nM
"Cc1cnccc1-c1cccc(C2CNCCN2S(=O)(=O)c2cccc(Cl)c2C)c1 (stereo not shown) [Compound 43AE, 1-((3-chloro-2-methylphenyl)sulfonyl)-2-(3-(3-methylpyridin-4-yl)phenyl)piperazine]",100 to 999 nM,100 to 999 nM
"Cc1cnsc1-c1cccc([C@H](C)N(CCCC(=O)O)S(=O)(=O)c2cccc(Cl)c2C)c1 [Compound 16AJ, (S)-4-(3-chloro-2-methyl-N-(1-(3-(4-methylisothiazol-5-yl)phenyl)ethyl)phenyl-sulfonamido)butanoic acid]",1000 to 30000 nM,1000 to 30000 nM
"Cc1cnccc1-c1cccc(C(CCCCN)NS(=O)(=O)c2ccccc2C(F)(F)F)c1 (stereo not shown) [Compound 24AA, N-(5-amino-1-(3-(3-methylpyridin-4-yl)phenyl)pentyl)-2-(trifluoromethyl)benzenesulfonamide]",100 to 999 nM,1000 to 30000 nM
"CC(C)(NS(=O)(=O)c1ccccc1C(F)(F)F)c1cccc(-c2ccc3[nH]cnc3c2)c1 [Compound 5AL, N-(2-(3-(1H-benzo[d]imidazol-5-yl)phenyl)propan-2-yl)-2-(trifluoromethyl)benzenesulfonamide]",> 30000 nM,1000 to 30000 nM
"Cc1cnccc1-c1cccc([C@H](C)N(CCCC(=O)NCCCS(=O)(=O)O)S(=O)(=O)c2cccc(Cl)c2C)c1 [Compound 20AL, (S)-3-(4-(3-chloro-2-methyl-N-(1-(3-(3-methylpyridin-4-yl)phenyl)ethyl)phenylsulfonamido)butanamido)propane-1-sulfonic acid]",< 100 nM,< 100 nM
"Cc1cnccc1-c1cccc([C@H](C)N(CCCCNC(=O)NCCS(=O)(=O)O)S(=O)(=O)c2ccccc2C(F)(F)F)c1 [Compound 28AB, (S)-2-(3-(4-(N-(1-(3-(3-methylpyridin-4-yl)phenyl)ethyl)-2-(trifluoromethyl)phenylsulfonamido)butyl)ureido)ethanesulfonic acid]",100 to 999 nM,< 100 nM
Cc1cnccc1-c1cccc(C(C)(C)N(CCCNC(=O)NCCCS(=O)(=O)O)S(=O)(=O)c2cccc(Cl)c2C)c1 [Compound 29AC],< 100 nM,< 100 nM
Cc1cnccc1-c1cccc([C@H](C)N(CCCC(=O)O)S(=O)(=O)c2cccc(Cl)c2C)c1 [Compound 16],< 100 nM,100 to 999 nM
"Cc1cnccc1-c1cccc(C(C)N(CCCC(=O)NCCSO)S(=O)(=O)c2ccccc2C(F)(F)F)c1 (stereo not shown) [Compound 20BC, N-(2-(hydroxythio)ethyl)-4-(N-(1-(3-(3-methylpyridin-4-yl)phenyl)ethyl)-2-(trifluoromethyl)phenylsulfonamido)butanamide]",100 to 999 nM,< 100 nM
Cc1cnccc1-c1cccc([C@H](CCCC#N)NS(=O)(=O)c2cccc(Cl)c2C)c1 [Compound 2BZ],< 100 nM,< 100 nM
"Cc1cnccc1-c1cccc([C@H](C)N(CCCC(=O)NCCS(=O)(=O)NCC(=O)O)S(=O)(=O)c2ccccc2C)c1 [Compound 20AX, (S)-2-(4-(2-methyl-N-(1-(3-(3-methylpyridin-4-yl)phenyl)ethyl)phenylsulfonamido)butanamidoethylsulfonamido)acetate]",100 to 999 nM,< 100 nM
"Cc1cnccc1-c1cccc(C(C)(C)N(CCCNS(=O)(=O)CCN2C(=O)c3ccccc3C2=O)S(=O)(=O)c2cccc(Cl)c2C)c1 [Compound 26A, 3-Chloro-N-(3-((2-(1,3-dioxoisoindolin-2-yl)ethyl)sulfonamido)propyl)-2-methyl-N-(2-(3-(3-methylpyridin-4-yl)phenyl)propan-2-yl)benzenesulfonamide]",100 to 999 nM,< 100 nM
"Cc1cnccc1-c1cccc([C@H](C)N(CCCC(=O)O)S(=O)(=O)c2ccccc2C(F)(F)F)c1 [Compound 15, (S)-4-(N-(1-(3-(3-methylpyridin-4-yl)phenyl)ethyl)-2-(trifluoromethyl)phenylsulfonamido)-butanoic acid]",100 to 999 nM,< 100 nM
"Cc1nccc(-c2cccc([C@H](C)NS(=O)(=O)c3cccc(Cl)c3C)c2)c1C [Compound 7AB, (S)-3-chloro-N-(1-(3-(2,3-dimethylpyridin-4-yl)phenyl)ethyl)-2-methylbenzenesulfonamide]",1000 to 30000 nM,100 to 999 nM

# Results, then the molecule that gave them:
EC50 (mouse TGR5 receptor),EC50 (human TGR5 receptor),Compound
< 100 nM,100 to 999 nM,"Cc1cnccc1-c1cccc(C2CN(CCCC(=O)NCCS(=O)(=O)O)CCN2S(=O)(=O)c2cccc(Cl)c2C)c1 (stereo not shown) [Compound 53AA, 2-(4-(4-((3-chloro-2-methylphenyl)sulfonyl)-3-(3-(3-methylpyridin-4-yl)phenyl)piperazin-1-yl)butanamido)ethanesulfonic acid]"
< 100 nM,< 100 nM,"Cc1cnccc1-c1cccc(C2CN(C(=O)CCCC(=O)O)CCN2S(=O)(=O)c2cccc(Cl)c2C)c1 (stereo not shown) [Compound 46AE, 5-(4-((3-chloro-2-methylphenyl)sulfonyl)-3-(3-(3-methylpyridin-4-yl)phenyl)piperazin-1-yl)-5-oxopentanoic acid]"
< 100 nM,100 to 999 nM,"Cc1c(Cl)cccc1S(=O)(=O)N1CCN(C(=O)CCC(=O)O)CC1c1cccc(-c2ccncc2Cl)c1 (stereo not shown) [Compound 46AG, 4-(4-((3-chloro-2-methylphenyl)sulfonyl)-3-(3-(3-chloropyridin-4-yl)phenyl)piperazin-1-yl)-4-oxobutanoic acid]"
100 to 999 nM,100 to 999 nM,"CCc1cnccc1-c1cccc(C2CN(CC(=O)O)CCN2S(=O)(=O)c2cccc(Cl)c2C)c1 (stereo not shown) [Compound 51, 2-(4-((3-Chloro-2-methylphenyl)sulfonyl)-3-(3-(3-ethylpyridin-4-yl)phenyl)piperazin-1-yl)acetic acid]"
100 to 999 nM,100 to 999 nM,"Cc1c(Cl)cccc1S(=O)(=O)N1CCN(C(=O)CS(=O)(=O)O)CC1c1cccc(-c2ccncc2)c1 (stereo not shown) [Compound 49AD, 2-(4-((3-chloro-2-methylphenyl)sulfonyl)-3-(3-(pyridin-4-yl)phenyl)piperazin-1-yl)-2-oxoethanesulfonic acid]"
100 to 999 nM,100 to 999 nM,Cc1cnccc1-c1cccc(C2CN(C(=O)CCC(=O)O)CCN2S(=O)(=O)c2ccc(F)cc2C(F)(F)F)c1 (stereo not shown) [Compound 46AL]
< 100 nM,100 to 999 nM,"CCc1cnccc1-c1cccc(C2CN(C(=O)CCC(=O)NCCCS(=O)(=O)O)CCN2S(=O)(=O)c2cccc(Cl)c2C)c1 (stereo not shown) [Compound 53AC, 3-(4-(4-((3-chloro-2-methylphenyl)sulfonyl)-3-(3-(3-ethylpyridin-4-yl)phenyl)piperazin-1-yl)-4-oxobutanamido)propane-1-sulfonic acid]"
< 100 nM,100 to 999 nM,"COc1cnccc1-c1cccc(C2CN(C(=O)CCC(=O)O)CCN2S(=O)(=O)c2cccc(Cl)c2C)c1 (stereo not shown) [Compound 46AH, 4-(4-((3-chloro-2-methylphenyl)sulfonyl)-3-(3-(3-methoxypyridin-4-yl)phenyl)piperazin-1-yl)-4-oxobutanoic acid]"
